Reference: ChEMBL document CHEMBL1158919, “Antiviral Activity of Ternatin and Meliternatin, 3-Methoxyflavones from Species of Rutaceae” (J Nat Prod, 1990)
Active and inactive are the calls of the source. No cut-off for these calls is given here.

Columns and labels:
[1] = system: Human alphaherpesvirus 2; test: Antiviral activity against HSV2 infected in african green monkey Vero cells assessed as log reduction in viral titer; type: functional
[2] = Therapeutic index, ratio of CyD50 for african green monkey Vero cells to ED50 for 10^-3 MOI VSV; type: cell-based; conditions: read-out: TI
[3] = system: Human alphaherpesvirus 2; test: Antiviral activity against 10^-2 MOI HSV2 infected in african green monkey Vero cells assessed as inhibition of virus-induced cytopathic effect; type: functional; conditions: Human alphaherpesvirus 2, Vero; read-out: ED50 (the source's name)
[4] = system: Vero; test: Cytotoxicity against african green monkey Vero cells up to 800 uM after 96 hrs; type: cell-based; conditions: chlorocebus sabaeus
[5] = system: Human alphaherpesvirus 1; test: Antiviral activity against 10^-3 MOI HSV1 infected in african green monkey Vero cells assessed as inhibition of virus-induced cytopathic effect; type: functional; conditions: Human alphaherpesvirus 1, Vero; read-out: ED50 (the source's name)
[6] = system: Human alphaherpesvirus 2; test: Antiviral activity against 10^-3 MOI HSV2 infected in african green monkey Vero cells assessed as inhibition of virus-induced cytopathic effect; type: functional; conditions: Human alphaherpesvirus 2, Vero; read-out: ED50 (the source's name)
[7] = Therapeutic index, ratio of CyD50 for african green monkey Vero cells to ED50 for 10^-3 MOI Poliovirus 2; type: cell-based; conditions: read-out: TI
[8] = system: Vesicular stomatitis virus; test: Antiviral activity against 10^-3 MOI VSV infected in african green monkey Vero cells assessed as inhibition of virus-induced cytopathic effect; type: functional; conditions: read-out: ED50 (the source's name)
[9] = Therapeutic index, ratio of CyD50 for african green monkey Vero cells to ED50 for 10^-2 MOI Human adenovirus 2; type: cell-based; conditions: read-out: TI
[10] = system: Human adenovirus 2; test: Antiviral activity against 10^-2 MOI Human adenovirus 2 infected in african green monkey Vero cells assessed as inhibition of virus-induced cytopathic effect; type: functional; conditions: Human mastadenovirus C, read-out: ED50 (the source's name)
[11] = system: Poliovirus 2; test: Antiviral activity against Poliovirus type 2 infected in african green monkey Vero cells assessed as log reduction in viral titer at 1.12 ug/mL; type: functional
[12] = system: Human adenovirus 2; test: Antiviral activity against 10^-3 MOI Human adenovirus 2 infected in african green monkey Vero cells assessed as inhibition of virus-induced cytopathic effect; type: functional; conditions: Human mastadenovirus C, read-out: ED50 (the source's name)
[13] = system: Vesicular stomatitis virus; test: Antiviral activity against VSV infected in african green monkey Vero cells assessed as log reduction in viral titer; type: functional
[14] = system: Human alphaherpesvirus 1; test: Antiviral activity against 10^-2 MOI HSV1 infected in african green monkey Vero cells assessed as inhibition of virus-induced cytopathic effect; type: functional, organism-based
[15] = system: Human adenovirus 2; test: Antiviral activity against Human adenovirus 2 infected in african green monkey Vero cells assessed as log reduction in viral titer; type: functional
[16] = system: Vesicular stomatitis virus; test: Antiviral activity against 10^-2 MOI VSV infected in african green monkey Vero cells assessed as inhibition of virus-induced cytopathic effect; type: functional; conditions: read-out: ED50 (the source's name)
[17] = Therapeutic index, ratio of CyD50 for african green monkey Vero cells to ED50 for 10^-3 MOI Human adenovirus 2; type: cell-based; conditions: read-out: TI
[18] = system: Vero; test: Cytotoxicity against african green monkey Vero cells assessed as cell lysis at >200 uM after 96 hrs; type: cell-based; conditions: chlorocebus sabaeus
[19] = Therapeutic index, ratio of CyD50 for african green monkey Vero cells to ED50 for 10^-2 MOI VSV; type: cell-based; conditions: read-out: TI
[20] = system: Vero; test: Cytotoxicity against african green monkey Vero cells up to 200 uM after 96 hrs; type: cell-based; conditions: chlorocebus sabaeus
[21] = system: Poliovirus 2; test: Antiviral activity against 10^-3 MOI Poliovirus type 2 infected in african green monkey Vero cells assessed as inhibition of virus-induced cytopathic effect; type: functional; conditions: Enterovirus C, read-out: ED50 (the source's name)
[22] = system: Poliovirus 2; test: Antiviral activity against 10^-2 MOI Poliovirus type 2 infected in african green monkey Vero cells assessed as inhibition of virus-induced cytopathic effect; type: functional; conditions: Enterovirus C, read-out: ED50 (the source's name)
[23] = system: Human alphaherpesvirus 1; test: Antiviral activity against HSV1 infected in african green monkey Vero cells assessed as log reduction in viral titer; type: functional
[24] = Therapeutic index, ratio of CyD50 for african green monkey Vero cells to ED50 for 10^-2 MOI HSV2; type: cell-based; conditions: read-out: TI
[25] = Therapeutic index, ratio of CyD50 for african green monkey Vero cells to ED50 for 10^-2 MOI Poliovirus 2; type: cell-based; conditions: read-out: TI
[26] = Therapeutic index, ratio of CyD50 for african green monkey Vero cells to ED50 for 10^-3 MOI HSV1; type: cell-based; conditions: read-out: TI
[27] = Therapeutic index, ratio of CyD50 for african green monkey Vero cells to ED50 for 10^-3 MOI HSV2; type: cell-based; conditions: read-out: TI
[28] = system: Poliovirus 2; test: Antiviral activity against Poliovirus type 2 infected in african green monkey Vero cells assessed as reduction in viral titer at 5 ug/mL; type: functional, organism-based
[29] = system: Vero; test: Cytotoxicity against african green monkey Vero cells assessed as cell lysis at >800 uM after 96 hrs; type: cell-based; conditions: chlorocebus sabaeus

Work on COc1cc(-c2oc3c(OC)c(OC)cc(O)c3c(=O)c2OC)ccc1O [TERNATIN] yielded an Activity [1] of 2, a selectivity ratio [2] of 5.2 and an EC50 [3] of 100 µM. For the same molecule, the Activity [4] was “Non-toxic”, the EC50 [5] was 44 µM and the EC50 [6] was 14 µM. It also gave a selectivity ratio [7] of 66.6, an EC50 [8] of 38 µM and a selectivity ratio [9] of 20. It also gave an EC50 [10] of 10 µM, an Activity [11] of 5 and an EC50 [12] of 10 µM. For the same molecule, the Activity [13] was 2, the ED50 [14] was “inactive” and the Activity [15] was 3. For the same molecule, the EC50 [16] was 48 µM, the selectivity ratio [17] was 20 and the Activity [18] was “Toxic”. The selectivity ratio [19] was 4.2, the Activity [20] was “Non-toxic” and the EC50 [21] was 3 µM. The EC50 [22] was 4 µM, the Activity [23] was 1 and the selectivity ratio [24] was 2. It also gave a selectivity ratio [25] of 50, a selectivity ratio [26] of 4.6 and a selectivity ratio [27] of 14.4.
With COc1c(-c2ccc(O)c(O)c2)oc2cc(O)cc(O)c2c1=O the Activity [28] was “Active”.
With COc1c(-c2ccc3c(c2)OCO3)oc2cc3c(c(OC)c2c1=O)OCO3 [MELITERNATIN] the Activity [29] was “Toxic”.
